Data as given in patent US11046722B2, “Sulphated disaccharides for the treatment of neuropathic pain” (BIOIBERICA, S.A.U., priority 2017, dated 2021).

What was measured:
[1] = system: mechanical allodynia induced in mice by chronic ligation of the sciatic nerve; test: Mechanical allodynia produced by chronic ligation of the sciatic nerve (von Frey, 50% pain threshold); format: in vivo; conditions: 7 days after surgery, 45 minutes before measurement
From the text: In Example 2, an experimental trial on mechanical allodynia induced in mice by chronic ligation of the sciatic nerve is described, according to the model described in the article by Decosterd et al., Spared nerve injury: an animal model of persistent peripheral neuropathic pain, Pain, 2000, 149-158. This model is based on causing mechanical allodynia in mice by means of ligation of two of the three branches of the sciatic nerve (tibial and peroneal), leaving the sural branch intact. The allodynia induced in this manner is quantified by the reduction observed in the threshold force that is necessary to apply in order to produce animal's paw withdrawal in those subjected to the ligation. As described in such example, it is observed that the administration of different doses of compound Ic is effective in reversing the allodynia induced in this model (FIGS. 1 and 2).
For this trial, groups of 6 to 7 mice were used for each group. Mechanical allodynia was induced in the animals (except for the control group) by chronic ligation of the sciatic nerve, and the allodynia induced in this manner was registered 7 days after performing the surgery.
Compound Ic was administered at different doses (3, 30 and 60 mg/Kg) as well as only saline solution as a control, and the positive control gabapentin (40 mg/Kg). The products were administered by stomach tube 45 minutes before performing the allodynia measurement, which was quantified using von Frey filaments, according to the force threshold necessary to cause paw withdrawal of the animal.
The results are summarized in FIG. 2, where the Y-axis represents half of the threshold force that is necessary to apply in order to cause paw withdrawal (50% pain threshold, in grams, g) and the X-axis indicates the different groups and treatments carried out. […]
An analogous test was carried out in which several doses of compound Ic (30, 60 and 120 mg/Kg) and gabapentin (40 mg/Kg) were administered, and the 50% pain threshold was measured at different times after the administration in order to evaluate the kinetic of the pharmacological effect and the total duration of the anti-allodynic effect. […]

[2] = system: allodynia induced in mice by injecting paclitaxel; test: Neuropathic pain induced by chemotherapy (paclitaxel): reversal by a single dose after induction; format: in vivo; conditions: paclitaxel 2 mg/Kg i.p. for 5 days, day 10, single oral dose, increasing doses 7.5, 15 and 30 mg/Kg, 45 minutes after administration
Description: In Example 3 an experimental model is used in mice based on inducing allodynia by intraperitoneal injection of paclitaxel, as described in the articles by Smith et al., Paclitaxel-induced neuropathic hypersensitivity in mice: responses in 10 inbred mouse strains, Life Sci., 2014, 2593-2604 and Palomano et al., Chemotherapy-evoked painful peripheral neuropathy, Pain Med., 2001, 2 (1), 8-14. In alternative trials, compound Ic was administered after allodynia induction by paclitaxel, or it was administered jointly with this chemotherapy medication. It is observed that compound Ic is effective at both reversing the allodynia induced by paclitaxel (FIG. 4), and preventing the development thereof when coadministered with paclitaxel (FIG. 5).
In this test, groups of mice between 7 and 12 animals were used, to which a daily dose of paclitaxel of 2 mg/Kg was administered by intraperitoneal route for 5 consecutive days (except for the control group). The evaluation of the induced mechanical allodynia was carried out on the 10th day after the first paclitaxel injection, and was quantified by using the von Frey filaments, according to the force threshold necessary to cause the paw withdrawal of the animal. […]

**Q.** For CO[C@H]1O[C@H](COS(=O)(=O)[O-])[C@@H](OS(=O)(=O)[O-])[C@H](O[C@@H]2O[C@H](C(=O)[O-])[C@@H](O)[C@H](O)[C@H]2O)[C@H]1NC(C)=O.[Na+].[Na+].[Na+] [Compound Ic, methyl 2-acetamido-2-desoxi-3-O-(β-D-glucopyranosyluronic acid)-4,6-di-O-sulfo-α-D-glucopyranoside trisodium salt], which anti-allodynic effect ([1]; 3 mg/Kg by stomach tube) is on record?
**A.** Its anti-allodynic effect is “notable”.

**Q.** And the anti-allodynic effect ([1]; 30 mg/Kg by stomach tube)?
**A.** Its anti-allodynic effect is “notable”.

**Q.** And the analgesic effect ([1]; 60 mg/Kg by stomach tube)?
**A.** The analgesic effect was “achieved an analgesic effect”.

**Q.** And the “reversal of the allodynia” value ([1]; 60 mg/Kg by stomach tube)?
**A.** The value was “total reversal of the allodynia”.

**Q.** And the “reversal of paclitaxel-induced allodynia” value [2]?
**A.** Its value is “reversed the paclitaxel-induced allodynia”.
